Source: paper PMC12045974, “T cell toxicity induced by tigecycline binding to the mitochondrial ribosome” (Nature Communications, 2025)
“And” between values parts separate entries of the source, which are not always exact repeats. Equal entries are not always repeated.

How the values were obtained:
[1] = test system: Jurkat T cells; assay: Cell viability assay (CCK-8), Jurkat T cells; type: cell-based, human; settings: for cell vialibity normalized to Vehicle (DMSO): in % (unit assumed)
Protocol: (§1) Cells were seeded in 96-well plates ranging from 2000 to 15,000 cells per well depending on different cell lines and treated with antibiotics in serial dilutions for 72 h (120 h for the preliminary assays) in a humidified incubator (37 °C, 5% CO2) in 100 μl medium (DMEM with 10% FBS, 2.05 mM L-glutamine (Sigma) for Hek293 and Hela; RPMI-1640 with 10% FBS, 2.05 mM L-glutamine (Sigma), and 55 μM 2-ME (Gibco) for Jurkat T cells and PBMCs). Based on preliminary tests, the number of cells per well was optimized to 2000 for Hela and Hek293, 6000 for Jurkat T cells, and 15,000 for PBMCs. The stocks of antibiotics were prepared by dissolving in DMSO. As control, the same amount of DMSO was added to the non-treated groups. Serial drug dilutions were prepared in the corresponding medium to provide a total of 9 concentrations up to 300 μM for tetracyclines and up to 900 μM for additional bacterial protein synthesis inhibitors. After drug treatment, 10% CCK-8 (Cell Counting Kit-8, Sigma Aldrich) (10 μl per well) of the total volume was added to the cells and incubated for 1–4 h depending on cell lines (1 h for Hela and Hek293; 3 h for Jurkat T cells; 4 h for PBMCs) before the evaluation of the effect of antibiotics on cell viability. […] Results were visually confirmed under the light microscope. Each treatment was performed in technical repeats. Dose-response curves were plotted, mean ± SEM was shown, and half maximal inhibitory concentration (IC50) values were calculated in GraphPad Prism.

[2] = test system: mitochondrial translation in CD4+ and CD8+ T cells; assay: Mito-FUNCAT-FACS assay of mitochondrial translation on activated T cells; type: cell-based, human; settings: per PBMC donor, listed as Pos ctrl
Protocol: Thawed PBMCs were washed with RPMI ( + 10% FBS, 2.05 mM L-glutamine (Sigma), and 55 μM 2-ME (Gibco)) before resting at 37 °C (5% CO2) for 30 min. After counting, cells were resuspended in FACS buffer at a density of 5 × 10^7 cells/ml. T cells were isolated using EasySep™ Human T Cell Isolation Kit (Stemcell Technologies). Purified T cells were counted and 85,000 cells per well seeded onto 96-well U-bottom plates with/without Human T-Activator CD3/CD28 beads (Invitrogen) at a 1:2.8 cell:bead ratio and 10 ng/ml IL-2 (Proteintech) in RPMI-1640 ( + 10% FBS, 2.05 mM L-glutamine (Sigma), and 55 μM 2-ME (Gibco)) for 48 h. To assess mitochondrial translation, activated T cells were washed twice with methionine/cysteine/pyruvate-free DMEM and incubated in methionine-depletion medium (DMEM supplemented with 10% dialyzed FBS, 1× GlutaMAX, 1× sodium pyruvate, and 0.2 mM L-cystine) for 30 min at 37 °C. To inhibit cytosolic translation, anisomycin (100 μg/mL) was added to the medium. For mitochondrial translation inhibition, 100 µg/mL chloramphenicol (309 μM, positive control) or tigecycline (2.5−10 μM) were added to the medium. Cells were then labeled with 50 μM L-homopropargylglycine (HPG) for 3 h at 37 °C, during which time the medium still contained antibiotics.
Following HPG labeling, cells were collected and stained with surface markers (CD4, CD8). Cells were pre-permeabilized with 0.005% digitonin in mitochondria-protective buffer (10 mM HEPES/KOH, 10 mM NaCl, 5 mM MgCl2, 300 mM sucrose, pH 7.5) for 3 min, fixed with 4% paraformaldehyde for 10 min, and fully permeabilized with 0.25% Triton X-100 for 5 min. After blocking with 5% BSA for 10 min, incorporated HPG was detected via copper-catalyzed cycloaddition using 0.05 μM Alexa Fluor 488 picolyl azide (Click-iT™ Plus Alexa Fluor™ 488 Picolyl Azide Toolkit, Gibco) for 30 min at room temperature. Subsequently, the reaction cocktail was removed and cells resuspended in FACS buffer. Flow cytometry was carried out on a BD Celesta (BD Biosciences) and analyzed in FlowJo (TreeStar). Data are presented as fold change relative to negative controls.

[3] = test system: HeLa cells; assay: Cell viability assay (CCK-8), HeLa cells; type: cell-based; settings: for cell vialibity normalized to Vehicle (DMSO): in % (unit assumed)
Protocol: as §1

[4] = test system: Hek293 cells; assay: Cell viability assay (CCK-8), Hek293 cells; type: cell-based, human; settings: in % (unit assumed)
Protocol: as §1

O=C(N[C@H](CO)[C@H](O)c1ccc([N+](=O)[O-])cc1)C(Cl)Cl [Chloramphenicol, chloramphenicol]
IC50 ([1]; Homo sapiens, 120 h, Jurkat T cells, after 5 days, read-out: IC50 (cell survival)): 25.9 µM
cell vialibity normalized to Vehicle (DMSO) ([1]; Jurkat 3d, dose 1 μM): 91.6279 and 94.5323 and 104.434 and 103.886 and 105.55
cell vialibity normalized to Vehicle (DMSO) ([1]; Jurkat 3d, dose 5 μM): 74.0465 and 84.1447 and 84.7132 and 88.5271 and 87.2868
cell vialibity normalized to Vehicle (DMSO) ([1]; Jurkat 3d, dose 10 μM): 63.1628 and 61.0232 and 47.7623 and 47.907 and 61.2196
cell vialibity normalized to Vehicle (DMSO) ([1]; Jurkat 3d, dose 50 μM): 13.1266 and 12.4444 and 12.0827 and 12.6408 and 12.4548
cell vialibity normalized to Vehicle (DMSO) ([1]; Jurkat 3d, dose 100 μM): 11.7933 and 11.4419 and 11.2455 and 11.1111 and 11.3282
cell vialibity normalized to Vehicle (DMSO) ([1]; Jurkat 5d, dose 1 μM): 106.953 and 119.838 and 129.235 and 117.806 and 137.373
cell vialibity normalized to Vehicle (DMSO) ([1]; Jurkat 5d, dose 5 μM): 116.039 and 104.909 and 120.616 and 122.485 and 146.087
cell vialibity normalized to Vehicle (DMSO) ([1]; Jurkat 5d, dose 10 μM): 103.365 and 68.172 and 100.846 and 74.0691 and 124.665
cell vialibity normalized to Vehicle (DMSO) ([1]; Jurkat 5d, dose 50 μM): 10.0745 and 7.603 and 8.334 and 7.062 and 9.025
cell vialibity normalized to Vehicle (DMSO) ([1]; Jurkat 5d, dose 100 μM): 7.529 and 7.5694 and 7.36 and 6.913 and 8.592
mitochondrial translation (fold change relative to negative control) ([2]; CD4, positive control 309 μM): 0.3672 and 0.3419 and 0.3517 and 0.3014
mitochondrial translation (fold change relative to negative control) ([2]; CD8, positive control 309 μM): 0.3783 and 0.3616 and 0.3857 and 0.2719
cell vialibity normalized to Vehicle (DMSO) ([3]; Hela 3d, dose 1 μM): 115.472 and 112.907 and 109.149 and 106.395 and 107.336
cell vialibity normalized to Vehicle (DMSO) ([3]; Hela 3d, dose 5 μM): 99.7977 and 98.9686 and 95.4348 and 95.1889 and 93.3131
cell vialibity normalized to Vehicle (DMSO) ([3]; Hela 3d, dose 10 μM): 85.1565 and 78.1239 and 77.2387 and 77.1403 and 78.8686
cell vialibity normalized to Vehicle (DMSO) ([3]; Hela 3d, dose 100 μM): 10.3486 and 10.3064 and 10.2994 and 10.5805
cell vialibity normalized to Vehicle (DMSO) ([3]; Hela 5d, dose 1 μM): 101.268 and 103.029 and 103.952 and 106.316 and 104.379
cell vialibity normalized to Vehicle (DMSO) ([3]; Hela 5d, dose 5 μM): 96.435 and 103.217 and 108.966 and 107.207 and 102.082
cell vialibity normalized to Vehicle (DMSO) ([3]; Hela 5d, dose 10 μM): 98.7408 and 101.357 and 94.3137 and 101.415 and 97.4373
cell vialibity normalized to Vehicle (DMSO) ([3]; Hela 5d, dose 50 μM): 38.8993 and 53.367 and 28.3728 and 27.4352 and 29.5718
cell vialibity normalized to Vehicle (DMSO) ([3]; Hela 5d, dose 100 μM): 5.6014 and 6.201 and 5.26 and 4.947 and 5.042
IC50 ([3]; Homo sapiens, 120 h, HeLa, after 5 days, read-out: IC50 (cell survival)): 41.7 µM

CN(C)c1cc(NC(=O)CNC(C)(C)C)c(O)c2c1C[C@H]1C[C@H]3[C@H](N(C)C)C(O)=C(C(N)=O)C(=O)[C@@]3(O)C(O)=C1C2=O [TIGE]
cell vialibity normalized to Vehicle (DMSO) ([1]; Jurkat, dose 0.137174 μM): 84.3137 and 94.7712
cell vialibity normalized to Vehicle (DMSO) ([1]; Jurkat, dose 0.411523 μM): 86.6013 and 87.2549
cell vialibity normalized to Vehicle (DMSO) ([1]; Jurkat, dose 1.23457 μM): 80.8824 and 75.3268
cell vialibity normalized to Vehicle (DMSO) ([1]; Jurkat, dose 3.7037 μM): 47.0588 and 43.6275
cell vialibity normalized to Vehicle (DMSO) ([1]; Jurkat, dose 11.1111 μM): 16.7484 and 17.0752
cell vialibity normalized to Vehicle (DMSO) ([1]; Jurkat, dose 33.3333 μM): 6.618 and 5.964
cell vialibity normalized to Vehicle (DMSO) ([3]; Hela, dose 0.137174 μM): 99.0957 and 99.8329
cell vialibity normalized to Vehicle (DMSO) ([3]; Hela, dose 0.411523 μM): 99.7643 and 100.836
cell vialibity normalized to Vehicle (DMSO) ([3]; Hela, dose 1.23457 μM): 95.2089 and 96.0446
cell vialibity normalized to Vehicle (DMSO) ([3]; Hela, dose 3.7037 μM): 96.0724 and 96.0446
cell vialibity normalized to Vehicle (DMSO) ([3]; Hela, dose 11.1111 μM): 92.3538 and 93.0501
cell vialibity normalized to Vehicle (DMSO) ([3]; Hela, dose 33.3333 μM): 92.3816 and 88.3426
cell vialibity normalized to Vehicle (DMSO) ([3]; Hela, dose 100 μM): 85.5606 and 88.2068
cell vialibity normalized to Vehicle (DMSO) ([3]; Hela, dose 300 μM): 79.8329 and 79.3036
cell vialibity normalized to Vehicle (DMSO) ([3]; Hela, dose 900 μM): 37.2702 and 29.1086
cell vialibity normalized to Vehicle (DMSO) ([4]; HEK293, dose 0.137174 μM): 102.411 and 106.702
cell vialibity normalized to Vehicle (DMSO) ([4]; HEK293, dose 0.411523 μM): 106.064 and 102.447
cell vialibity normalized to Vehicle (DMSO) ([4]; HEK293, dose 1.23457 μM): 90.2128 and 81.4539
cell vialibity normalized to Vehicle (DMSO) ([4]; HEK293, dose 11.1111 μM): 38.3156 and 41.7553
cell vialibity normalized to Vehicle (DMSO) ([4]; HEK293, dose 33.3333 μM): 48.1383 and 50.0177
cell vialibity normalized to Vehicle (DMSO) ([4]; HEK293, dose 100 μM): 40.2704 and 46.6888
cell vialibity normalized to Vehicle (DMSO) ([4]; HEK293, dose 300 μM): 31.6312 and 31.5248
cell vialibity normalized to Vehicle (DMSO) ([4]; HEK293, dose 900 μM): 7.2695 and 4.539
